In a melting point compilation (Tetko et al.; mined from patent text by program, amines drawn as free bases though some values may be those of a salt):

| Structure (SMILES) | melting point |
| --- | --- |
| CCC(=NO)C(C)(C)NCC(C)(C)CN | 118 to 120 °C |
| Cc1nc(-c2ccc([N+](=O)[O-])cc2)c(-c2ccc([N+](=O)[O-])cc2)[nH]1 | 230 to 232 °C |
| CCOC(=O)c1sc2ccc(Cl)cc2c1CBr | 148 to 150 °C |
| Oc1ccc2nc(SCCC=C(F)F)oc2c1 | 73.6 to 75.4 °C |
| O=C(Nc1cccc(S(=O)(=O)NC2CC2)c1)c1cnn2c(C(F)F)cc(-c3ccc(Cl)cc3)nc12 | 262 °C |
| OC1CSC(Oc2cnc(-c3ccncc3)c(F)c2)C(O)C1O (stereo not drawn) | 192 °C |
| CCC1(CCCCCl)C(=O)Nc2c(C)cccc21 (stereo not drawn) | 112 to 113 °C |
| Cc1ccccc1C=C(C#N)C=O | 81.5 °C |
| CC(=O)NC[C@H]1CN(c2ccc(N3CCC(n4nnc(N5CCN(C(C)=O)CC5)n4)CC3)c(F)c2)C(=O)O1 | 216 to 218 °C |
| O=C(O)CN1C(=O)C(=Cc2ccccc2Cl)SC1=S | 238 to 242 °C |
| CCOC(=O)Cc1ccc(CNC(=O)C=Cc2ccc3[nH]cc(CC#N)c3c2)cc1 | 125 to 130 °C |
| N#Cc1ccc(O)cc1Cl | 157 to 158 °C |
| O=C(O)c1cc([N+](=O)[O-])cc(Br)n1 | 172 to 173 °C |
| CS(=O)(=O)c1ccc(N2CCc3[nH]c4c(cnc5cc(Cl)ccc54)c3C2)cc1 | > 250 °C |
| OCCCc1ncnn1C(c1ccccc1)(c1ccccc1)c1ccccc1 | 150 to 152 °C |
| CC(C)(C)OC(=O)c1ccc(NC2CCc3cc4nc(COC(=O)C(C)(C)C)[nH]c(=O)c4cc32)cc1 (racemic) | 231 °C |
| CCOC(=O)C(=O)C(C#N)Cc1ccccc1 (stereo not drawn) | 80 to 83 °C |
| COc1ccc(C)cc1C(=O)NCCc1ccc(CC(=O)O)cc1 | 148 to 150 °C |
| CCNC(=O)c1cccc(F)c1Nc1nc(Cl)ncc1Cl | 233 to 234 °C |
| Cc1c(O)ccc(NC2=CC(=O)C(N)=CC2=O)c1C | 320 °C |
| OC(c1cccs1)C1CCCCC1 (stereo not drawn) | 90 to 92 °C |
| CC(C)=NOCc1nc2c(N)nc3c(c2n1CC(C)C)CCCC3 | 176 to 177 °C |
| COC(=O)c1cn(-c2ccc(C3=NOC(NC(C)=O)C3)cc2F)nn1 (stereo not drawn) | 221 °C |
| N#CC1C=Cc2ccccc2N1C(=O)c1ccccc1 (stereo not drawn) | 153 to 154 °C |
| CCC(O)C#Cc1ncn2c1CN(C)C(=O)c1c(Cl)cccc1-2 (stereo not drawn) | 178 °C |

| Structure (SMILES) | melting point |
| --- | --- |
| CCN(CC)CC(=O)Nc1ccc(-c2n[nH]c3c2Cc2ccccc2-3)cc1 | 99 to 100 °C |
| N#Cc1cc(NC(=O)c2cc3ccccc3s2)ccc1N1CCN(C2CCOCC2)CC1 | > 285 °C |
| CC(C)(C)OC(=O)N1[C@@H](CC2CCCCC2)[C@H](c2ccco2)OC1(C)C | 52 to 56 °C |
| CCN(CC)c1ccc(-c2cc(-c3ccc(C(=O)O)cc3)ccc2OCC(C)O)cc1C(C)(C)C (stereo not drawn) | 193 °C |
| CC(C)c1nc2c(c(-c3ccc(F)cc3)c1CO)CCCC2(C)C | 146 to 149 °C |
| COc1cc2c(cc1O)CCN(S(=O)(=O)c1ccccc1OC)C2 | 140 to 142 °C |
| CC1(C)CON(CC2=C(Cl)CC(=NCc3ccccc3O)C=C2)C1=O | 105 to 107 °C |
| CC1(CN2CCN(N=Cc3ccc(OC(F)(F)F)cc3)CC2)Cn2cc([N+](=O)[O-])nc2O1 (stereo not drawn) | 189 to 191 °C |
| C[C@H](NC(=O)OC(C)(C)C)C(=O)C=[N+]=[N-] | 99 to 102 °C |
| COc1c(OCc2ccccc2)cnc(CNc2nc(C)nc(C)c2Cl)c1C | 114 to 116 °C |
| CCCCCCC(=O)Nc1cccc2c1C(=O)N(C1CCC(=O)NC1=O)C2=O (stereo not drawn) | 200 to 202 °C |
| CCCCCNC(=O)CC(c1ccc(OC)c(OC)c1)N1C(=O)c2ccccc2C1=O (stereo not drawn) | 140 to 142 °C |
| COC(=O)C(C)(C)CCCOc1cc(C)c(N2C(=O)c3ccccc3C2=O)cc1C | 109 to 111 °C |
| Cc1ccsc1-c1cncc(Br)c1 | 58 to 59 °C |
| c1ccc(-n2cc3c(n2)-n2cccc2C3(Cc2ccncc2)Cc2ccncc2)cc1 | 169 to 170 °C |
| CCOC(=O)O[C@H](CCCc1ccc(OCc2nc(-c3ccccc3)sc2C)cc1)C(N)=O | 130 to 131 °C |
| COc1cc(COc2nn(-c3ccc(C(F)(F)F)cc3)cc2/C=C/CO)ccc1OCc1nc(-c2ccccc2)oc1C | 118 to 119 °C |
| Cc1cc(Cl)nnc1-c1ccc(Br)cc1 | 197 to 200 °C |
| CC1=CC(=O)c2cc(O)ccc2C1=O | 175 °C |
| CCCCCCCCCOc1ccnc(C(=O)O)c1 | 89 to 92 °C |
| CCc1nc2c(N)nc3ccccc3c2n1CCS(C)(=O)=O | 222 to 225 °C |
| COC[C@@H](O)[C@@H](O)[C@H](OC)[C@@H](O)C=O | 113 to 115 °C |
| O=C(Cl)Oc1ccc(Cl)c(Cl)c1 | 51 to 53 °C |
| Cc1ccc(C(=S)c2cc(Cl)cc3c2NC(=O)C3)cc1 | 179 to 181 °C |
| Nc1ccccc1C(=O)NCCCn1ccnc1 | 107 to 110 °C |

| Structure (SMILES) | melting point |
| --- | --- |
| Fc1ccc(/C=C/c2nc(COc3ccc(CCCCn4ccnn4)cc3)co2)cc1 | 124 to 125 °C |
| CS(=O)(=O)N1CC2(CCN(C(=O)Nc3cnc(-c4ccccc4)cn3)CC2)c2ccccc21 | 201 to 203 °C |
| O=C(Nc1ccc(C(=O)c2ccccc2)cc1)c1cc(Cl)cc(Cl)c1 | 219 to 220 °C |
| O=C1c2ccccc2C(=O)N1Cc1ccc(Br)nc1 | 130 to 131 °C |
| CCc1ccc(-c2ccc3c(c2)C=C(C(=O)Nc2ccc(CN(C)C4CCOCC4)cc2)CCO3)cc1 | 181 to 182 °C |
| COc1cccc(C=C2NC(=O)NC2=O)c1OCCc1ccccc1 | 199 to 201 °C |
| O=C(NC12CC3CC(CC(C3)C1)C2)c1ncn(-c2ccccc2)c1Br | 229 to 232 °C |
| CCOC(=O)CC1C(=O)N(CC(C)(C)C)c2ccc(Cl)cc2N(c2ccccc2Cl)C1=O (stereo not drawn) | 152 to 153 °C |
| CCCCC(N=O)C(C)(C)Cl (stereo not drawn) | 84 to 85 °C |
| Cc1ccsc1C1CC(=O)CC(=O)C1 | 166 to 168 °C |
| CNc1ccc(C#CCCN2CC=C(c3ccccc3)CC2)nc1 | 164 to 166 °C |
| N#Cc1ccc2cc(-c3cccc(O)c3)oc2c1 | 225 to 227 °C |
| CN1CC(CCCl)Oc2ccc(Br)cc2C1=S (stereo not drawn) | 118 to 120 °C |
| Cc1ccc(-c2[nH]c(-c3ccc4ccccc4c3)nc2C(=O)Nc2nccs2)cc1 | > 250 °C |
| Cc1ccc(F)c(-c2ccc(S(=O)(=O)N3c4ccccc4CC3C(=O)NCCOc3ccc(CC(=O)O)cc3)cc2)c1 (stereo not drawn) | 82 to 85 °C |
| CCn1cc(C(=O)O)c(=O)c2cnc(N3CCN(CCO)CC3)nc21 | 222 °C |
| Cc1cc(-c2nc3cccnn3c2-c2ccnc(NC(=O)NCC(C)O)c2)ccc1F (stereo not drawn) | 139 to 140 °C |
| O=C(NCc1ccc(Cl)cc1)c1cnc2c(F)cc(-c3nccs3)cc2c1O | 296 to 298 °C |
| CC1(C)OCC[C@@H]2[C@H](C(O)CBr)C(=O)N21 (stereo partly drawn) | 141 to 142 °C |
| CCN1C(=O)C(C)(C)C(=O)N(C)c2cc(CN(CCn3ccc4oc(C)cc4c3=O)Cc3cncnc3)ccc21 | 146 to 148 °C |
| CON=CC1=CCCN(C(=O)OCC(=O)N2CCCCC2)C1 | 93 to 94 °C |
| Cc1cc(C)n2nc(S(=O)(=O)Cl)c(C#N)c2n1 | 138 °C |
| NC1CCN(c2nc(Nc3ccc(F)cc3F)c(C(=O)O)cc2F)C1 (stereo not drawn) | 249 to 250 °C |
